According to patent publication US11786515B2, “Anesthetic mixtures formulations for local anesthesia, at very low concentration, to be used cold with suitable packaging” (L. MOLTENI & C. DEI FRATELLI ALITTI-SOCIETA′ DI ESERCIZIO …, priority 2018, dated 2023):
Structures can show the parent of a compound that is named as a salt.

Key:
[1] = cited from earlier work; for toxic dose: long-acting anesthetics
[2] = Toxic and maximum doses of local anesthetics (state of the art)
Text: The Articaine hydrochloride always belongs to the group of the short-acting local anesthetics.

[3] = combined with a vasoconstrictor such as adrenaline

SMILES | maximum volume ([2]; 5 mg/ml solution (0.5%)) | toxic dose [1] | also measured
CCCNC(C)C(=O)Nc1c(C)csc1C(=O)OC (centres unmarked) [Articaine hydrochloride] |  |  | toxic dose / tolerance compared with other short-acting anesthetics ([1]; in vivo): overlapping to that of the lidocaine and mepivacaine
CCCCN1CCCC[C@H]1C(=O)Nc1c(C)cccc1C [Levobupivacaine hydrochloride] | 30 mL | 2 mg/kg body | 
CCCCN1CCCCC1C(=O)Nc1c(C)cccc1C (centres unmarked) [Bupivacaine hydrochloride] | 30 mL | 2 mg/kg body | 
CCN(CC)CC(=O)Nc1c(C)cccc1C [Lidocaine, Lidocaine hydrochloride] |  |  | maximum volume ([2]; human, in vivo): 15 mL; maximum dosage [1, 3]: 7 mg/kg; maximum dose [1, 3]: 500 mg
